Test results taken from publication PMC12077194, “Structural basis for spermidine recognition and modulation of Acinetobacter baumannii multidrug efflux regulator AmvR” (mBio, 2025).

Assays:
[1] = target: T1, AmvR (Acinetobacter baumannii, UniProt A0A7U3Y8S7); test: Isothermal titration calorimetry of polyamines with apo AmvR wild-type; assay type: binding; settings: ITC, 20°C, read-out: equilibrium dissociation constant (Kd)
T1 sequence (A0A7U3Y8S7 4-192): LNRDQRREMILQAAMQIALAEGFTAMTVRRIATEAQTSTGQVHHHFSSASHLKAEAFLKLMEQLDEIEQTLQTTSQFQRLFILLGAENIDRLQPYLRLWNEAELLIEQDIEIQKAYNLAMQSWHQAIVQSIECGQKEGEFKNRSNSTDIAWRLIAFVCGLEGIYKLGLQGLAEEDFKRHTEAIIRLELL
Method: (§1) The AmvR^WT or mutant proteins were purified with affinity chromatography followed by size-exclusion chromatography and buffer-exchange with buffer D. The polyamines were also dissolved in Buffer D. The ITC experiments were performed at 20°C using a MicroCal PEAQ-ITC (Malvern Panalytical Ltd) using 20 injections of 2 µL or 25 injections of 1.6 µL. A solution of 100 µM AmvR wild-type or mutants was loaded into the cell, whereas a 1 mM solution of polyamines was loaded into the syringe. The measured heat changes of the binding reactions were integrated and analyzed using the standard “one set of sites” model implemented in the Origin software package (OriginLab) to determine the binding stoichiometry (N-value) and the equilibrium dissociation constant (Kd).

[2] = target: T2, AmvR^E71A (Acinetobacter baumannii, UniProt A0A7U3Y8S7, E71A); test: ITC of polyamines with AmvR^E71A mutant; assay type: binding
T2 sequence (A0A7U3Y8S7 4-192 E71A): T1 sequence (A0A7U3Y8S7 4-192)
Method: as §1

[3] = target: T3, AmvR L86A (Acinetobacter baumannii, UniProt A0A7U3Y8S7, L86A); test: ITC of spermidine with AmvR L86A mutant; assay type: binding
T3 sequence (A0A7U3Y8S7 4-192 L86A): T1 sequence (A0A7U3Y8S7 4-192)
Method: as §1

[4] = target: T4, AmvR E106A (Acinetobacter baumannii, UniProt A0A7U3Y8S7, E106A); test: ITC of spermidine with AmvR E106A mutant; assay type: binding
T4 sequence (A0A7U3Y8S7 4-192 E106A): T1 sequence (A0A7U3Y8S7 4-192)
Method: as §1

[5] = target: T5, AmvR N103A (Acinetobacter baumannii, UniProt A0A7U3Y8S7, N103A); test: ITC of spermidine with AmvR N103A mutant; assay type: binding
T5 sequence (A0A7U3Y8S7 4-192 N103A): T1 sequence (A0A7U3Y8S7 4-192)
Method: as §1

[6] = target: T6, AmvR^E164A (Acinetobacter baumannii, UniProt A0A7U3Y8S7, E164A); test: ITC of spermidine with AmvR^E164A mutant; assay type: binding
T6 sequence (A0A7U3Y8S7 4-192 E164A): T1 sequence (A0A7U3Y8S7 4-192)
Method: as §1

[7] = target: T7, AmvR W126E (Acinetobacter baumannii, UniProt A0A7U3Y8S7, W126E); test: ITC of spermidine with AmvR W126E mutant; assay type: binding
T7 sequence (A0A7U3Y8S7 4-192 W126E): T1 sequence (A0A7U3Y8S7 4-192)
Method: as §1

[8] = target: T8, AmvR L99E (Acinetobacter baumannii, UniProt A0A7U3Y8S7, L99E); test: ITC of spermidine with AmvR L99E mutant; assay type: binding
T8 sequence (A0A7U3Y8S7 4-192 L99E): T1 sequence (A0A7U3Y8S7 4-192)
Method: as §1

[9] = target: T9, AmvR^L99Q (Acinetobacter baumannii, UniProt A0A7U3Y8S7, L99Q); test: ITC of spermidine with AmvR^L99Q mutant; assay type: binding
T9 sequence (A0A7U3Y8S7 4-192 L99Q): T1 sequence (A0A7U3Y8S7 4-192)
Method: as §1

[10] = target: T10, AmvR W102A (Acinetobacter baumannii, UniProt A0A7U3Y8S7, W102A); test: ITC of spermidine with AmvR W102A mutant; assay type: binding
T10 sequence (A0A7U3Y8S7 4-192 W102A): T1 sequence (A0A7U3Y8S7 4-192)
Method: as §1

[11] = target: T11, AmvR E65A (Acinetobacter baumannii, UniProt A0A7U3Y8S7, E65A); test: ITC of spermidine with AmvR E65A mutant; assay type: binding
T11 sequence (A0A7U3Y8S7 4-192 E65A): T1 sequence (A0A7U3Y8S7 4-192)
Method: as §1

[12] = target: AmvR (a.a. 4-192) from Acinetobacter baumannii, wild type (Acinetobacter baumannii); test: SEC; Superdex 75 Increase 10/300 GL, buffer F (200 mM NaCl, 20 mM Tris pH 8.0, 5 mM DTT), compared with gel filtration standards; AmvR^WT also with 2x and 10x spermidine

NCCCCCN [cadaverine]
Kd [1]: 5.88 µM
Kd [2]: 69.9 µM

NCCCCN [putrescine]
Kd [1]: 9.52 µM

NCCCCNCCCN [spermidine]
Kd [1]: 0.73 µM
Kd [3]: 6.21 µM
Kd [4]: 7.09 µM
Kd [2]: 40.5 µM
Kd [5]: 1.22 µM
KD [6]: eliminated spermidine binding
Kd [7]: 7.52 µM
Kd [8]: 5.71 µM
Kd [9]: 0.75 µM
KD [10]: completely eliminated spermidine binding
Kd [11]: 0.96 µM

NCCCNCCCCNCCCN [spermine]
Kd [1]: 2.16 µM
Kd [2]: 88.5 µM

AmvR (a.a. 4-192) from Acinetobacter baumannii, wild type (natural protein)
stoichiometry N [12]: 2
